Data taken from US6284269A, “Pharmaceutical compositions of meloxicam with improved solubility and bioavailability” (Hexal AG, priority 1997, dated 2001).
“And” between values parts separate entries of the source, which are not always exact repeats. Equal entries are not always repeated.

Key:
[1] = In vitro dissolution of cyclodextrin based meloxicam compositions under non-sink conditions (standard method); type: physicochemical
Method: The following standard method was used for the determination of the solution rate of the drug compositions: In vitro dissolution properties of the cyclodextrin based meloxicam compositions were studied under non-sink conditions in two different buffer systems, pH 1.3 and 7.6, respectively and in deionised water (pH=6.6) at 37° C.
(§1) The stirring rate was 160 r.p.m. […] Sampling time intervals were 5, 10, 15, 30, 45 and 60 minutes.

[2] = In vitro rate of dissolution of meloxicam composition at pH 1.2 (table 9); type: physicochemical; details: 37° C., 60 min
Method: The following standard method was used for the determination of the solution rate of the drug compositions: In vitro dissolution properties of the cyclodextrin based […], respectively and in deionised water (pH=6.6) at 37° C.
as §1

For `Cc1cnc(NC(=O)C2=C(O)c3ccccc3S(=O)(=O)N2C)s1` [free meloxicam, meloxicam], the “Dissolved meloxicam in solution” value ([1]; deionised water (pH = 6.6), 37° C., 5 min) was 23 µg/mL, the “Dissolved meloxicam in solution” value ([1]; deionised water (pH = 6.6), 37° C., 10 min) was 148 µg/mL and the “Dissolved meloxicam in solution” value ([1]; deionised water (pH = 6.6), 37° C., 15 min) was 232 µg/mL. For the same compound, the “Dissolved meloxicam in solution” value ([1]; deionised water (pH = 6.6), 37° C., 30 min) was 390 µg/mL, the “Dissolved meloxicam in solution” value ([1]; deionised water (pH = 6.6), 37° C., 45 min) was 415 µg/mL and the “Dissolved meloxicam in solution” value ([1]; deionised water (pH = 6.6), 37° C., 60 min) was 475 µg/mL. The “Dissolved meloxicam in solution” value ([1]; pH 1.3, 37° C., 5 min (tables 4, 11, 13)) was 0.4 µg/mL and 0.30 µg/mL, the “Dissolved meloxicam in solution” value ([1]; pH 1.3, 37° C., 5 min, free meloxicam 130 mg, composition 1300 mg (table 7)) was 0.45 µg/mL and the “Dissolved meloxicam in solution” value ([1]; pH 1.3, 37° C., 5 min, free meloxicam 130 mg, composition 1500 mg (tables 5, 6)) was 0.45 µg/mL. For the same compound, the “Dissolved meloxicam in solution” value ([1]; pH 1.3, 37° C., 10 min (tables 4, 11, 13)) was 0.6 µg/mL and 0.38 µg/mL, the “Dissolved meloxicam in solution” value ([1]; pH 1.3, 37° C., 10 min, free meloxicam 130 mg, composition 1300 mg (table 7)) was 0.62 µg/mL and the “Dissolved meloxicam in solution” value ([1]; pH 1.3, 37° C., 10 min, free meloxicam 130 mg, composition 1500 mg (tables 5, 6)) was 0.62 µg/mL. For the same compound, the “Dissolved meloxicam in solution” value ([1]; pH 1.3, 37° C., 15 min (tables 4, 11, 13)) was 0.7 µg/mL and 0.44 µg/mL, the “Dissolved meloxicam in solution” value ([1]; pH 1.3, 37° C., 15 min, free meloxicam 130 mg, composition 1300 mg (table 7)) was 0.67 µg/mL and the “Dissolved meloxicam in solution” value ([1]; pH 1.3, 37° C., 15 min, free meloxicam 130 mg, composition 1500 mg (tables 5, 6)) was 0.67 µg/mL. The “Dissolved meloxicam in solution” value ([1]; pH 1.3, 37° C., 30 min (tables 4, 11, 13)) was 0.7 µg/mL and 0.56 µg/mL, the “Dissolved meloxicam in solution” value ([1]; pH 1.3, 37° C., 30 min, free meloxicam 130 mg, composition 1300 mg (table 7)) was 0.74 µg/mL and the “Dissolved meloxicam in solution” value ([1]; pH 1.3, 37° C., 30 min, free meloxicam 130 mg, composition 1500 mg (tables 5, 6)) was 0.74 µg/mL. For the same compound, the “Dissolved meloxicam in solution” value ([1]; pH 1.3, 37° C., 45 min (tables 4, 11, 13)) was 0.7 µg/mL and 0.59 µg/mL, the “Dissolved meloxicam in solution” value ([1]; pH 1.3, 37° C., 45 min, free meloxicam 130 mg, composition 1300 mg (table 7)) was 0.73 µg/mL and the “Dissolved meloxicam in solution” value ([1]; pH 1.3, 37° C., 45 min, free meloxicam 130 mg, composition 1500 mg (tables 5, 6)) was 0.73 µg/mL. For the same compound, the “Dissolved meloxicam in solution” value ([1]; pH 1.3, 37° C., 60 min (tables 4, 11, 13)) was 0.6 µg/mL and 0.65 µg/mL, the “Dissolved meloxicam in solution” value ([1]; pH 1.3, 37° C., 60 min, free meloxicam 130 mg, composition 1300 mg (table 7)) was 0.67 µg/mL and the “Dissolved meloxicam in solution” value ([1]; pH 1.3, 37° C., 60 min, free meloxicam 130 mg, composition 1500 mg (tables 5, 6)) was 0.67 µg/mL. For the same compound, the “Dissolved meloxicam in solution” value ([1]; pH 7.6, 37° C., 5 min (tables 4, 11)) was 38 µg/mL, the “Dissolved meloxicam in solution” value ([1]; pH 7.6, 37° C., 5 min, free meloxicam 130 mg, composition 1300 mg (table 7)) was 38 µg/mL and the “Dissolved meloxicam in solution” value ([1]; pH 7.6, 37° C., 5 min, free meloxicam 130 mg, composition 1500 mg (tables 5, 6)) was 38 µg/mL. For the same compound, the “Dissolved meloxicam in solution” value ([1]; pH 7.6, 37° C., 10 min (tables 4, 11)) was 188 µg/mL and 218 µg/mL, the “Dissolved meloxicam in solution” value ([1]; pH 7.6, 37° C., 10 min, free meloxicam 130 mg, composition 1300 mg (table 7)) was 218 µg/mL and the “Dissolved meloxicam in solution” value ([1]; pH 7.6, 37° C., 10 min, free meloxicam 130 mg, composition 1500 mg (tables 5, 6)) was 218 µg/mL. For the same compound, the “Dissolved meloxicam in solution” value ([1]; pH 7.6, 37° C., 15 min (tables 4, 11)) was 320 µg/mL, the “Dissolved meloxicam in solution” value ([1]; pH 7.6, 37° C., 15 min, free meloxicam 130 mg, composition 1300 mg (table 7)) was 320 µg/mL and the “Dissolved meloxicam in solution” value ([1]; pH 7.6, 37° C., 15 min, free meloxicam 130 mg, composition 1500 mg (tables 5, 6)) was 320 µg/mL. For the same compound, the “Dissolved meloxicam in solution” value ([1]; pH 7.6, 37° C., 30 min (tables 4, 11)) was 390 µg/mL, the “Dissolved meloxicam in solution” value ([1]; pH 7.6, 37° C., 30 min, free meloxicam 130 mg, composition 1300 mg (table 7)) was 390 µg/mL and the “Dissolved meloxicam in solution” value ([1]; pH 7.6, 37° C., 30 min, free meloxicam 130 mg, composition 1500 mg (tables 5, 6)) was 390 µg/mL. The “Dissolved meloxicam in solution” value ([1]; pH 7.6, 37° C., 45 min (tables 4, 11)) was 485 µg/mL, the “Dissolved meloxicam in solution” value ([1]; pH 7.6, 37° C., 45 min, free meloxicam 130 mg, composition 1300 mg (table 7)) was 485 µg/mL and the “Dissolved meloxicam in solution” value ([1]; pH 7.6, 37° C., 45 min, free meloxicam 130 mg, composition 1500 mg (tables 5, 6)) was 485 µg/mL. For the same compound, the “Dissolved meloxicam in solution” value ([1]; pH 7.6, 37° C., 60 min (tables 4, 11)) was 550 µg/mL, the “Dissolved meloxicam in solution” value ([1]; pH 7.6, 37° C., 60 min, free meloxicam 130 mg, composition 1300 mg (table 7)) was 550 µg/mL and the “Dissolved meloxicam in solution” value ([1]; pH 7.6, 37° C., 60 min, free meloxicam 130 mg, composition 1500 mg (tables 5, 6)) was 550 µg/mL. For the same compound, the “meloxicam (dissolved)” value [2] was 0.8 µg/mL.
